From US10968222B2, “2-azabicyclo hexane JAK inhibitor compound” (THERAVANCE BIOPHARMA R&D IP, LLC, priority 2018, dated 2021) come the findings set out here.

One data set addresses T1, CDK9 (Homo sapiens, UniProt P50750).
T1 construct: made in house; host or cells: E. coli BL21-derived host (T7 phage) or HEK-293 cells
Put plainly: Kinome screen, CDK9. It is filed as binding. To be noted: screened at 1 μM. The method, then: (§1) Compounds 1 and C-1 were screened against other kinases to evaluate their selectivity profile.
(§2) Kinase-tagged T7 phage strains were grown in parallel in 24-well blocks in an E. coli host derived from the BL21 strain. E. coli were grown to log-phase and infected with T7 phage from a frozen stock (multiplicity of infection=0.4) and incubated with shaking at 32° C. until lysis (90-150 minutes). The lysates were centrifuged (6,000×g) and filtered (0.2 μm) to remove cell debris. The remaining kinases were produced in HEK-293 cells and subsequently tagged with DNA for qPCR detection.
(§3) Streptavidin-coated magnetic beads were treated with biotinylated small molecule ligands for 30 minutes at room temperature to generate affinity resins for kinase assays. The liganded beads were blocked with excess biotin and washed with blocking buffer (SeaBlock (Pierce), 1% BSA, 0.05% Tween 20, 1 mM DTT) to remove unbound ligand and to reduce non-specific phage binding. Binding reactions were assembled by combining kinases, liganded affinity beads, and test compounds in 1× binding buffer (20% SeaBlock, 0.17×PBS, 0.05% Tween 20, 6 mM DTT). Test compounds were prepared as 40× stocks in 100% DMSO and directly diluted into the assay. All reactions were performed in polypropylene 384-well plates in a final volume of 0.04 ml. […] The kinase concentration in the eluates was measured by qPCR. […]

Data set [1] concerns IL-6 induced pSTAT3 in rat retina/choroid. The data set is described as follows: Pharmacodynamic assay: inhibition of IL6-induced pSTAT3 in rats. To be noted: rat retina/choroid homogenates; 45 μg intravitreal dose; one hour after injection. It is filed as in vivo. The method, then: The ability of a single intravitreal administration of test compound to inhibit IL-6 induced pSTAT3 was measured in rat retina/choroid homogenates.
A solution formulation was prepared by dissolving compound 1 in 1% HPMC E5+15% HPβCD, pH7 to attain a target concentration of […]. Female Lewis rats were intravitreally (IVT) dosed (5 μL per eye) with either the vehicle, vehicle plus rat IL-6 (Peprotech; 0.5 μg), or a combination of IL-6 plus compound (0.5 μg IL-6 and 45 μg compound 1). Ocular tissues were dissected one hour after the IVT injection. The retina/choroid tissues were homogenized and pSTAT3 levels were measured using an AlphaLisa (PerkinElmer). The percent inhibition of IL-6-induced pSTAT3 was calculated in comparison to the vehicle and IL-6 groups.

Another data set addresses T2, ALK (Homo sapiens, UniProt Q9UM73).
T2 construct: made in house; host or cells: E. coli BL21-derived host (T7 phage) or HEK-293 cells
Put plainly: Kinome screen, ALK. The following applies: screened at 1 μM. It is filed as binding. The method, then: as §1, §2, §3

In a further data set the target is T3, GSK3B (Homo sapiens, UniProt P49841).
T3 construct: made in house; host or cells: E. coli BL21-derived host (T7 phage) or HEK-293 cells
Put plainly: Kinome screen, GSK3B. It is filed as binding. To be noted: screened at 1 μM. Here is the method:
as §1, §2, §3

Data set [2] deals with BEAS-2B human lung epithelial cells. The data set is described as follows: CellTiter-Glo cell viability/cytotoxicity assay. It is filed as cell-based. To be noted: BEAS-2B cells; 48 h; 15% inhibition threshold. Here is the method:
A CellTiter-Glo luminescent cell viability/cytotoxicity assay was carried out in BEAS-2B human lung epithelial cells (ATCC) under the normal growth condition.
Cells were grown at 37° C. in a 5% CO2 humidified incubator in 50% DMEM/50% F-12 medium (Life Technologies) supplemented with 10% FBS (Hyclone), 100 U/mL penicillin, 100 μg/mL streptomycin (Life Technologies), and 2 mM GlutaMAX (Life Technologies). On day 1 of the assay, cells were seeded at a 500 cells/well density in white 384-well tissue culture plates (Corning) with 25 μL medium, and were allowed to adhere overnight in the incubator. On day 2 of the assay, 5 μL of medium containing dose-responses of test compounds was added, and incubated at 37° C. for 48 h. 30 μL of CellTiter-Glo detection solution (Promega) was subsequently added, mixed on an orbital shaker for 5 min, and incubated for additional 10 min before being read on the EnVision reader. Luminescence signals were recorded and percent DMSO control values were calculated.
For dose-response analysis, percent DMSO control data were plotted vs. compound concentrations to derive dose-response curves by line connecting each data point. The concentration at which each curve crosses the 15% inhibition threshold is defined as CC15.
A general note: Cellular ATP, detected with luciferase, serves as a proxy for viable cell number.

In the next data set the target is T4, CSNK1D (Homo sapiens, UniProt P48730).
T4 construct: made in house; host or cells: E. coli BL21-derived host (T7 phage) or HEK-293 cells
Put plainly: Kinome screen, CSNK1D. It is filed as binding. To be noted: screened at 1 μM. Here is the method:
as §1, §2, §3

The next data set deals with T5, PAK4 (Homo sapiens, UniProt O96013).
T5 construct: made in house; host or cells: E. coli BL21-derived host (T7 phage) or HEK-293 cells
Put plainly: Kinome screen, PAK4. It is filed as binding. To be noted: screened at 1 μM. The method, then:
as §1, §2, §3

The target in a further data set is T6, CDK7 (Homo sapiens, UniProt P50613).
T6 construct: made in house; host or cells: E. coli BL21-derived host (T7 phage) or HEK-293 cells
The data set is described as follows: Kinome screen, CDK7. The following applies: screened at 1 μM. It is filed as binding. Here is the method:
as §1, §2, §3

Another data set has as its target T7, PLK4 (Homo sapiens, UniProt O00444).
T7 construct: made in house; host or cells: E. coli BL21-derived host (T7 phage) or HEK-293 cells
The data set is described as follows: Kinome screen, PLK4. It is filed as binding. The following applies: screened at 1 μM. Here is the method:
as §1, §2, §3

The target in a further data set is T8, KIT (Homo sapiens, UniProt P10721).
T8 construct: made in house; host or cells: E. coli BL21-derived host (T7 phage) or HEK-293 cells
The data set is described as follows: Kinome screen, KIT. It is filed as binding. To be noted: screened at 1 μM. Here is the method: as §1, §2, §3

T1 sequence (P50750 whole entry): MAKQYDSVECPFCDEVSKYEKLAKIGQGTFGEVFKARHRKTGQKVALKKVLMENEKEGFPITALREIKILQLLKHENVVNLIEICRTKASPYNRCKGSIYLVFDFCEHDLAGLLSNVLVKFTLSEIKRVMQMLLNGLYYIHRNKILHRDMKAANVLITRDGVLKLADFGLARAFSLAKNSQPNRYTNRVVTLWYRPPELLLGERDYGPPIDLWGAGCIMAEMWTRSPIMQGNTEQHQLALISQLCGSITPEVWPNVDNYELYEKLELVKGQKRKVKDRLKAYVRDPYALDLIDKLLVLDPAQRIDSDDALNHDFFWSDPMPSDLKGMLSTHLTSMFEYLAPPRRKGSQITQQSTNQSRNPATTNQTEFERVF
T6 sequence (P50613 whole entry): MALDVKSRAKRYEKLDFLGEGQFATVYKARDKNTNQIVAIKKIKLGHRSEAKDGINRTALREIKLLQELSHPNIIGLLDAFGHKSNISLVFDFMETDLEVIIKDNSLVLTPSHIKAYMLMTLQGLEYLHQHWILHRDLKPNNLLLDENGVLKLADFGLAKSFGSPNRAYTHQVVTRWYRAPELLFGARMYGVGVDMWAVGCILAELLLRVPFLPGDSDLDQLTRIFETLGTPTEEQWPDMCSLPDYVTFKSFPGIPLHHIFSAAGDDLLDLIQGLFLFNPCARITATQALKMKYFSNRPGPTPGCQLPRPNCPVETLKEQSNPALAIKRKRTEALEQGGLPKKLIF
T4 sequence (P48730 whole entry): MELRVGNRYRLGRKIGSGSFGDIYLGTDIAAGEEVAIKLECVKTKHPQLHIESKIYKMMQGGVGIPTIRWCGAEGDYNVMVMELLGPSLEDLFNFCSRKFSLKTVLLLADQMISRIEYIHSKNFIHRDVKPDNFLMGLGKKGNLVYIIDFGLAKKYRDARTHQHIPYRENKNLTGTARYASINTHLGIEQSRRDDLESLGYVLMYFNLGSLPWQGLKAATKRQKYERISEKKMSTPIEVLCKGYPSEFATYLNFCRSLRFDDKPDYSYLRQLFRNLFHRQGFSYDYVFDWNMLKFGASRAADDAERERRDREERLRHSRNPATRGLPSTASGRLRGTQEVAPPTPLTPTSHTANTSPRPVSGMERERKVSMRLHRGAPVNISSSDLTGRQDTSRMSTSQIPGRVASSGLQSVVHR
T2 sequence (Q9UM73 19-1620): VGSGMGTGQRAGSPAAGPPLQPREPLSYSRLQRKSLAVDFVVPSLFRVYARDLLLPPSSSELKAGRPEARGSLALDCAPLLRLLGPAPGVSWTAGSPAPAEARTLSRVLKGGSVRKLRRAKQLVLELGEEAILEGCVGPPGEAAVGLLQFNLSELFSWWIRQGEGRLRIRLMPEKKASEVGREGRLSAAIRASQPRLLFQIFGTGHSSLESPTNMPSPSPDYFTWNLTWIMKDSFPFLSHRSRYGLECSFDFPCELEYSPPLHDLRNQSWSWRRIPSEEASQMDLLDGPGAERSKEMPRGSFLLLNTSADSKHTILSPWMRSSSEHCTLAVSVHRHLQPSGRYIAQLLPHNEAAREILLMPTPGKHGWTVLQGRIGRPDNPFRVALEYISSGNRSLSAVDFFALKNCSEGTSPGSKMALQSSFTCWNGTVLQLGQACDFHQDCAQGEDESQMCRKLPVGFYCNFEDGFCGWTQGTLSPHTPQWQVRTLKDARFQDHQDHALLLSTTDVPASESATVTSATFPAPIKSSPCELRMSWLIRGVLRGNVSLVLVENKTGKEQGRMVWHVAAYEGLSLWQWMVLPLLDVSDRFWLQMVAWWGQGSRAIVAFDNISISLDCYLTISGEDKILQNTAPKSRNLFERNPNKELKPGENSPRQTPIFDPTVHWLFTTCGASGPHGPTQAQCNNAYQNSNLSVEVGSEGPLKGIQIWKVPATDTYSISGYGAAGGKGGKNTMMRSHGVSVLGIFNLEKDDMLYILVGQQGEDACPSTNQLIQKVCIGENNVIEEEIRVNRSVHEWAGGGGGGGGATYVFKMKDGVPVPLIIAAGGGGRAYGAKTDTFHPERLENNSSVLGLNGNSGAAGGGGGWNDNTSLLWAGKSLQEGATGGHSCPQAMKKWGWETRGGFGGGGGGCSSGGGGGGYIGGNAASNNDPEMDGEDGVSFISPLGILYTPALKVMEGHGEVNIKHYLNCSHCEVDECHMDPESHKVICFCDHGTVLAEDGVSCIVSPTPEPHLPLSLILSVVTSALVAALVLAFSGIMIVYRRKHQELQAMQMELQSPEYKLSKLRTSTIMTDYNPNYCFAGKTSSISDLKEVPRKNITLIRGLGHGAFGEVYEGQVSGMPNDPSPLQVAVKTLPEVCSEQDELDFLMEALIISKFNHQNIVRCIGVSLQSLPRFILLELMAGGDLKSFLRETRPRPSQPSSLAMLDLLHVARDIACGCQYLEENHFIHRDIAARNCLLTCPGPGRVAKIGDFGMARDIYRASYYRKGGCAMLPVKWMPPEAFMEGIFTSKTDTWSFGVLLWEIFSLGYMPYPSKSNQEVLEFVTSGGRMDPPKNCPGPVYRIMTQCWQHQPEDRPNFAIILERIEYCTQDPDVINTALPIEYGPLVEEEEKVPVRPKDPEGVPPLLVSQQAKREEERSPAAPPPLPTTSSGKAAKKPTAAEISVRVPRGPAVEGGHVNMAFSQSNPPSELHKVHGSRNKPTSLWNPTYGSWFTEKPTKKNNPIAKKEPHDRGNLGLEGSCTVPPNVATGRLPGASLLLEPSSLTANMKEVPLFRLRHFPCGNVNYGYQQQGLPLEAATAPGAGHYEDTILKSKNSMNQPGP
T8 sequence (P10721 26-976): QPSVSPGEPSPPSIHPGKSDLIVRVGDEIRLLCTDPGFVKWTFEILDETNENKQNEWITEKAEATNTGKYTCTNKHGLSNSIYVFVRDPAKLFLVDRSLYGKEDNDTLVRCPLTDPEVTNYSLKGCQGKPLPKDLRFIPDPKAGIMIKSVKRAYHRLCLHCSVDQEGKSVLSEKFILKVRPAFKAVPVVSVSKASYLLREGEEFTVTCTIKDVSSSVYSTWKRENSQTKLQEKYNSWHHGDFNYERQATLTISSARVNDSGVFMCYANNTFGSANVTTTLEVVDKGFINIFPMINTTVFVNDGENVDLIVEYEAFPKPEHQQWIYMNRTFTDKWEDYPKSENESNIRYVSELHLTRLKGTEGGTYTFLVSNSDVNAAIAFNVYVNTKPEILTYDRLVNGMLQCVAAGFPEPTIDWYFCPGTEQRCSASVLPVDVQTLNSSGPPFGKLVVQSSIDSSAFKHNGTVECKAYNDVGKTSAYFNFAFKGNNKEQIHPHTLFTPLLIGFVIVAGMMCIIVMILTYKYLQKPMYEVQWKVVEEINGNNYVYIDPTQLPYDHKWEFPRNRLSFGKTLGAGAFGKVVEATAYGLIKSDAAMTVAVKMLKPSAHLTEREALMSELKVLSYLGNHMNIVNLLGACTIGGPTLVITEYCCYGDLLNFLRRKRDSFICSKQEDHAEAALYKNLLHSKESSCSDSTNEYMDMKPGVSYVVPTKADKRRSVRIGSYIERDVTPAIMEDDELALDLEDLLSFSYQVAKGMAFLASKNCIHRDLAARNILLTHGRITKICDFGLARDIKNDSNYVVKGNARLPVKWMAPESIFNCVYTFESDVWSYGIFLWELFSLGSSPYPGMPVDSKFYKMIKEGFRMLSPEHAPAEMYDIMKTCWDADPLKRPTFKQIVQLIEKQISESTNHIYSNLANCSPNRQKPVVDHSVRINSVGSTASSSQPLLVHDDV
T7 sequence (O00444 whole entry): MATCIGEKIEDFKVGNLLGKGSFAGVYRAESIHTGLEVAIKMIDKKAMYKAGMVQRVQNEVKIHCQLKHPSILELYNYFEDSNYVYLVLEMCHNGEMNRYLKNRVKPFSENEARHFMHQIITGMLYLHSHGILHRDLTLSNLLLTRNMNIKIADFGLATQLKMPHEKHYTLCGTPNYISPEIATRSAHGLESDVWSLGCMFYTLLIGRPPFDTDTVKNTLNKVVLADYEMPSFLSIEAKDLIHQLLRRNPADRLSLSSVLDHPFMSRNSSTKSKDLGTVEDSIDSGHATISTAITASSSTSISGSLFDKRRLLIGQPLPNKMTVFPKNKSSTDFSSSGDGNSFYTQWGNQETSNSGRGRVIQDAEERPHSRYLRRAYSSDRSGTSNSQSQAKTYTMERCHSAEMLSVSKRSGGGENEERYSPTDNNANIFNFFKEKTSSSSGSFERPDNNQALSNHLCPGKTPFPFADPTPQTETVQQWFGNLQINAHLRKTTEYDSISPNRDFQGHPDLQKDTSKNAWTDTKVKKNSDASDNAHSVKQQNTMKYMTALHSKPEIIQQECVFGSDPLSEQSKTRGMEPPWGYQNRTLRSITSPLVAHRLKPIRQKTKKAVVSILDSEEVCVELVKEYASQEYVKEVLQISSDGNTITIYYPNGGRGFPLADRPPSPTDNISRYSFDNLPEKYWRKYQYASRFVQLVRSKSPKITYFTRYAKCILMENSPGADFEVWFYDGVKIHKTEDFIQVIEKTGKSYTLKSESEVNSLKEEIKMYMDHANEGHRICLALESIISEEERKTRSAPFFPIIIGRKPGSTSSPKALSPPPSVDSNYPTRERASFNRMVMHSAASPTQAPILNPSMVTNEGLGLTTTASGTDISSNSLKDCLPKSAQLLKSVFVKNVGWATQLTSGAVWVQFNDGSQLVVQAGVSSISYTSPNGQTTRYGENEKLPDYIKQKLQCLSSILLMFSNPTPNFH
T3 sequence (P49841 whole entry): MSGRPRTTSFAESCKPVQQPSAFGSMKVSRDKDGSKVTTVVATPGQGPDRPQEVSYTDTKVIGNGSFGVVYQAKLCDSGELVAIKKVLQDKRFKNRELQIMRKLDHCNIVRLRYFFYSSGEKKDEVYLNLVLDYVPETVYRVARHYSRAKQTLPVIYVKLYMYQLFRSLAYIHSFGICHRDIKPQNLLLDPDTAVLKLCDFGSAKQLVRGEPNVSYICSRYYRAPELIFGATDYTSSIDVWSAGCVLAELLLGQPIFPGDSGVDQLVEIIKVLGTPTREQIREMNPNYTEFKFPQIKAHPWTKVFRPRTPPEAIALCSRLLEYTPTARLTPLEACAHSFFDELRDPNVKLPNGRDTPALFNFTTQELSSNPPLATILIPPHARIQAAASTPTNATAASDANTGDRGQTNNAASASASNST

The term inhibition denotes the change of the read-out against control, counted positive when it falls. Low readings indicate a weak effect, high ones a strong effect. For `CCc1cc(O)c(F)cc1-c1cc(F)c2c(-c3nc4c([nH]3)CCN(C(=O)[C@]35C[C@H]3CCN5)C4)n[nH]c2c1` [Compound 1, (1S,5R)-2-azabicyclo[3.1.0]hexan-1-yl(2-(6-(2-ethyl-5-fluoro-4-hydroxyphenyl)-4-fluoro-1H-indazol-3-yl)-6,7-dihydro-3H-imidazo[4,5-c]pyridin-5(4H)-yl)methanone], the inhibition at 1 µM at CDK9 turned out to be 13%; on ALK, 79%; at GSK3B, 32%; at CSNK1D, 25%; on PAK4, 41%; on CDK7, 82%. The inhibition at 1 µM was found to be 39% on PLK4 and 83% at KIT. In addition, the “inhibition of IL-6-induced pSTAT3” value in data set [1] was 84%. The CC15 in data set [2] was over 10 µM. The same compound had a pCC15 in data set [2] of under 5.
